Laboratory results from US11498899B2, “Nitrone herbicides” (FMC Corporation, priority 2016, dated 2022).

How the values were obtained:
[1] = system: barnyardgrass (Echinochloa crus-galli); experiment: Test A preemergence, visual injury rating 0-100 (0 no effect, 100 complete control); type: in vivo
[2] = system: foxtail, giant (giant foxtail, Setaria faberii); experiment: Test A preemergence, visual injury rating 0-100; type: in vivo
kochia (Kochia scoparia) [3] = experiment: Test A preemergence, visual injury rating 0-100; type: in vivo
[4] = system: pigweed (Amaranthus retroflexus); experiment: Test A preemergence, visual injury rating 0-100; type: in vivo
[5] = system: ragweed (common ragweed, Ambrosia elatior); experiment: Test A preemergence, visual injury rating 0-100; type: in vivo
[6] = system: ryegrass, Italian (Italian ryegrass, Lolium multiflorum); experiment: Test A preemergence, visual injury rating 0-100; type: in vivo
[7] = system: barnyardgrass (Echinochloa crus-galli); experiment: Test A postemergence, visual injury rating 0-100; type: in vivo; conditions: 0 to 100 scale
[8] = system: blackgrass (Alopecurus myosuroides); experiment: Test A postemergence, visual injury rating 0-100; type: in vivo; conditions: 0 to 100 scale
corn (Zea mays) = experiment: Test A postemergence, visual injury rating 0-100; type: in vivo; conditions: 0 to 100 scale
[9] = system: foxtail, giant (giant foxtail, Setaria faberii); experiment: Test A postemergence, visual injury rating 0-100; type: in vivo; conditions: 0 to 100 scale
[10] = system: galium (catchweed bedstraw, Galium aparine); experiment: Test A postemergence, visual injury rating 0-100; type: in vivo; conditions: 0 to 100 scale
kochia (Kochia scoparia) [11] = experiment: Test A postemergence, visual injury rating 0-100; type: in vivo; conditions: 0 to 100 scale
[12] = system: pigweed (Amaranthus retroflexus); experiment: Test A postemergence, visual injury rating 0-100; type: in vivo; conditions: 0 to 100 scale
[13] = system: ragweed (common ragweed, Ambrosia elatior); experiment: Test A postemergence, visual injury rating 0-100; type: in vivo; conditions: 0 to 100 scale
[14] = system: ryegrass, Italian (Italian ryegrass, Lolium multiflorum); experiment: Test A postemergence, visual injury rating 0-100; type: in vivo; conditions: 0 to 100 scale
[15] = system: wheat (Triticum aestivum); experiment: Test A postemergence, visual injury rating 0-100; type: in vivo; conditions: 0 to 100 scale
[16] = system: ducksalad (Heteranthera limosa); experiment: Test B flooded paddy test, visual rating 0-100; conditions: Flood, 250 g ai/ha, applied to paddy water, rated after 13 to 15 days
[17] = system: barnyardgrass (Echinochloa crus-galli); experiment: Test B flooded paddy test, visual rating 0-100; conditions: Flood, 250 g ai/ha, applied to paddy water, rated after 13 to 15 days
rice (Oryza sativa) = experiment: Test B flooded paddy test, visual rating 0-100 (0 no effect, 100 complete control); conditions: Flood, 250 g ai/ha, applied to paddy water, rated after 13 to 15 days

SMILES | Barnyardgrass plant response rating (0 to 100 scale) ([1]; 125 g ai/ha) | Barnyardgrass plant response rating (0 to 100 scale) ([1]; 500 g ai/ha) | Foxtail, Giant plant response rating (0 to 100 scale) ([2]; 125 g ai/ha) | Foxtail, Giant plant response rating (0 to 100 scale) ([2]; 500 g ai/ha) | Kochia plant response rating (0 to 100 scale) (kochia (Kochia scoparia) [3]; 125 g ai/ha) | Kochia plant response rating (0 to 100 scale) (kochia (Kochia scoparia) [3]; 500 g ai/ha) | Pigweed plant response rating (0 to 100 scale) ([4]; 125 g ai/ha) | Pigweed plant response rating (0 to 100 scale) ([4]; 500 g ai/ha) | Ragweed plant response rating (0 to 100 scale) ([5]; 125 g ai/ha) | Ragweed plant response rating (0 to 100 scale) ([5]; 500 g ai/ha) | Ryegrass, Italian plant response rating (0 to 100 scale) ([6]; 125 g ai/ha) | Ryegrass, Italian plant response rating (0 to 100 scale) ([6]; 500 g ai/ha) | Barnyardgrass plant response rating ([7]; 125 g ai/ha) | Barnyardgrass plant response rating ([7]; 500 g ai/ha) | Blackgrass plant response rating ([8]; 125 g ai/ha) | Blackgrass plant response rating ([8]; 500 g ai/ha) | Corn plant response rating (corn (Zea mays); 125 g ai/ha) | Corn plant response rating (corn (Zea mays); 500 g ai/ha) | Foxtail, Giant plant response rating ([9]; 125 g ai/ha) | Foxtail, Giant plant response rating ([9]; 500 g ai/ha) | also measured
CC1=[N+]([O-])C(C(=O)Nc2cccc(F)c2F)C(c2cccc(Oc3ccc(F)cc3)c2)C1 (racemic) [Compound 58] | 10 | 90 | 40 | 90 | 0 | 0 | 0 | 0 | 0 | 90 | 10 | 80 | 10 | 30 | 20 | 70 | 0 | 40 | 30 | 70 | Galium plant response rating ([10]; 125 g ai/ha): 30; Galium plant response rating ([10]; 500 g ai/ha): 50; Kochia plant response rating (kochia (Kochia scoparia) [11]; 125 g ai/ha): 0; Kochia plant response rating (kochia (Kochia scoparia) [11]; 500 g ai/ha): 20; Pigweed plant response rating ([12]; 125 g ai/ha): 0; Pigweed plant response rating ([12]; 500 g ai/ha): 30; Ragweed plant response rating ([13]; 125 g ai/ha): 0; Ragweed plant response rating ([13]; 500 g ai/ha): 0; Ryegrass, Italian plant response rating ([14]; 125 g ai/ha): 20; Ryegrass, Italian plant response rating ([14]; 500 g ai/ha): 50; Wheat plant response rating ([15]; 125 g ai/ha): 10; Wheat plant response rating ([15]; 500 g ai/ha): 20; Ducksalad plant response rating (0 to 100 scale) [16]: 0; Barnyardgrass plant response rating (0 to 100 scale) [17]: 0; Rice plant response rating (0 to 100 scale) (rice (Oryza sativa)): 0
CC1=[N+]([O-])C(C(=O)Nc2cccc(F)c2F)C(c2ccc(C(F)(F)F)nc2)C1 (racemic) [Compound 60] | 90 | 100 | 90 | 100 | 10 | 80 | 50 | 80 | 0 | 90 | 10 | 70 | 40 | 90 | 10 | 70 | 20 | 60 | 70 | 90 | Galium plant response rating ([10]; 125 g ai/ha): 20; Galium plant response rating ([10]; 500 g ai/ha): 60; Kochia plant response rating (kochia (Kochia scoparia) [11]; 125 g ai/ha): 0; Kochia plant response rating (kochia (Kochia scoparia) [11]; 500 g ai/ha): 10; Pigweed plant response rating ([12]; 125 g ai/ha): 0; Pigweed plant response rating ([12]; 500 g ai/ha): 10; Ragweed plant response rating ([13]; 125 g ai/ha): 0; Ragweed plant response rating ([13]; 500 g ai/ha): 40; Ryegrass, Italian plant response rating ([14]; 125 g ai/ha): 0; Ryegrass, Italian plant response rating ([14]; 500 g ai/ha): 40; Wheat plant response rating ([15]; 125 g ai/ha): 20; Wheat plant response rating ([15]; 500 g ai/ha): 70; Ducksalad plant response rating (0 to 100 scale) [16]: 0; Barnyardgrass plant response rating (0 to 100 scale) [17]: 40; Rice plant response rating (0 to 100 scale) (rice (Oryza sativa)): 0
CC1=[N+]([O-])C(C(=O)Nc2cccc(F)c2F)C(c2ccc(C)c(C(F)(F)F)c2)C1 (racemic) [Compound 62] | 90 | 90 | 90 | 90 | 0 | 60 | 10 | 70 | 0 | 60 | 90 | 90 | 70 | 80 | 40 | 70 | 60 | 80 | 50 | 80 | Galium plant response rating ([10]; 125 g ai/ha): 40; Galium plant response rating ([10]; 500 g ai/ha): 50; Kochia plant response rating (kochia (Kochia scoparia) [11]; 125 g ai/ha): 0; Kochia plant response rating (kochia (Kochia scoparia) [11]; 500 g ai/ha): 20; Pigweed plant response rating ([12]; 125 g ai/ha): 0; Pigweed plant response rating ([12]; 500 g ai/ha): 10; Ragweed plant response rating ([13]; 125 g ai/ha): 0; Ragweed plant response rating ([13]; 500 g ai/ha): 50; Ryegrass, Italian plant response rating ([14]; 125 g ai/ha): 70; Ryegrass, Italian plant response rating ([14]; 500 g ai/ha): 80; Wheat plant response rating ([15]; 125 g ai/ha): 40; Wheat plant response rating ([15]; 500 g ai/ha): 50; Ducksalad plant response rating (0 to 100 scale) [16]: 0; Barnyardgrass plant response rating (0 to 100 scale) [17]: 55; Rice plant response rating (0 to 100 scale) (rice (Oryza sativa)): 0
CC1=[N+]([O-])C(C(=O)Nc2cccc(F)c2F)C(c2ccc(F)c(Cl)c2)C1 (racemic) [Compound 63] | 80 | 90 | 90 | 90 | 0 | 40 | 10 | 60 | 0 | 80 | 20 | 80 | 50 | 90 | 70 | 90 | 10 | 90 | 50 | 90 | Galium plant response rating ([10]; 125 g ai/ha): 30; Galium plant response rating ([10]; 500 g ai/ha): 70; Kochia plant response rating (kochia (Kochia scoparia) [11]; 125 g ai/ha): 20; Kochia plant response rating (kochia (Kochia scoparia) [11]; 500 g ai/ha): 30; Pigweed plant response rating ([12]; 125 g ai/ha): 0; Pigweed plant response rating ([12]; 500 g ai/ha): 20; Ragweed plant response rating ([13]; 125 g ai/ha): 0; Ragweed plant response rating ([13]; 500 g ai/ha): 20; Ryegrass, Italian plant response rating ([14]; 125 g ai/ha): 30; Ryegrass, Italian plant response rating ([14]; 500 g ai/ha): 90; Wheat plant response rating ([15]; 125 g ai/ha): 40; Wheat plant response rating ([15]; 500 g ai/ha): 80; Ducksalad plant response rating (0 to 100 scale) [16]: 30; Barnyardgrass plant response rating (0 to 100 scale) [17]: 65; Rice plant response rating (0 to 100 scale) (rice (Oryza sativa)): 0
